From publication PMC8334341 (Acta Pharmacologica Sinica, 2021)

Assays:
[1] = biological target: RBD domain of S protein of SARS-CoV-2 (Severe acute respiratory syndrome coronavirus 2, UniProt P0DTC2); experiment: biochemical; assay type: binding
[2] = biological target: binding interactions between RBD and ACE2 (Homo sapiens, UniProt Q9BYF1); set-up: species or system SARS-CoV-2
ACE2 = details: read-out: IC50 (ACE2 inhibitor); cited from earlier work

binding interactions between RBD and ACE2, sequence (Q9BYF1 whole entry, looked up): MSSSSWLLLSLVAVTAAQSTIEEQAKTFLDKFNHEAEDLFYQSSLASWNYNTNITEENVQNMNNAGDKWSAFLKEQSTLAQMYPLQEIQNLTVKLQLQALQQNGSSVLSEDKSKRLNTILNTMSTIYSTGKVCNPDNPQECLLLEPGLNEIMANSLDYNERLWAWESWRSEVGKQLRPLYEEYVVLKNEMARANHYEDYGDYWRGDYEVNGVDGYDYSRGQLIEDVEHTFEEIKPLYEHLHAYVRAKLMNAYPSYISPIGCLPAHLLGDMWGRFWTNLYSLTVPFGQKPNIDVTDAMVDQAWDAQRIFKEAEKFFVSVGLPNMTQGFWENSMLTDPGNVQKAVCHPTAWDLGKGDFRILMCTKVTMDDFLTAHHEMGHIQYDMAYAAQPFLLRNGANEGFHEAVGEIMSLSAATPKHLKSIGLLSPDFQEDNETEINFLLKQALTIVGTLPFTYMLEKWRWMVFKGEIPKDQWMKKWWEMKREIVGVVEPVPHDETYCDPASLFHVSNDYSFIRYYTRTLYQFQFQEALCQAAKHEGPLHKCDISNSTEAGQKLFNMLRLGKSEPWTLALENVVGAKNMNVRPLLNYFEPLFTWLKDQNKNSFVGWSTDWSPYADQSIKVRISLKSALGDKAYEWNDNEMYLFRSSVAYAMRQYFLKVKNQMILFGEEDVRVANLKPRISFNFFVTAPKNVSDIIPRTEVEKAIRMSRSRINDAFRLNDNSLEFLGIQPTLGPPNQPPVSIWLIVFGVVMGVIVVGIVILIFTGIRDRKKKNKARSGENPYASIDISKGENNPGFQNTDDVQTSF

`C=C[C@@H]1C2=CCOC(=O)C2=CO[C@H]1O[C@@H]1O[C@H](CO)[C@@H](O)[C@H](O)[C@H]1O` [GTCP, Gentiopicrin] gave a Kd [1] of 29.6 µM.

For `Nc1ncnc2c1ncn2[C@@H]1O[C@H](CO)C[C@H]1O` [CDCP, Cordycepin], the Kd [1] was 20.5 µM.

In the case of `CC(C)C[C@H](N[C@@H](Cc1cncn1Cc1cc(Cl)cc(Cl)c1)C(=O)O)C(=O)O` [MLN-4760], the “effect on the binding affinity between RBD and ACE2” value [2] is given as “negligible effect” and the IC50 (ACE2) is given as 0.00044 µM.
